Test results taken from patent US12479974B2, “Composition and method for microbial control for use with polymers” (MICROBAN PRODUCTS COMPANY, priority 2022, dated 2025).
Values after ≈ are worked out from the molar mass of the structure shown.

What was measured:
[1] = test system: Escherichia coli (gram-negative bacteria); test: Antimicrobial efficacy of polymer samples, ISO22196 test method
[2] = test system: Staphylococcus aureus (gram-positive bacteria); test: as above; settings: GBA alone at more than 4500 ppm in TPU, Table 3 (S. aureus)
[3] = test system: Staphylococcus aureus; test: Minimum inhibitory concentration (MIC); type: cell-based; settings: against Staphylococcus aureus
[4] = test system: Escherichia coli; test: Minimum inhibitory concentration (MIC); type: cell-based; settings: against Escherichia coli

MIC [3] [µg/mL]	MIC [4] [µg/mL]	Structure (SMILES)	efficacy against E. coli ([1]; 2500 ppm GBA in TPU)	log reduction ([1]; 4500 ppm GBA alone in TPU, E. coli)	log reduction (consistent antimicrobial efficacy) ([1]; 5250 ppm level in TPU, E. coli)	antimicrobial efficacy [2]
–	–	O=C(O)c1ccccc1 [GBA, benzoic acid]	no efficacy	less than 1	> 1	did not exhibit antimicrobial efficacy
4000 (≈ 29.4 mM)	3000 to 4000 (≈ 22 to 29.4 mM)	OCCCc1ccccc1 [3-phenylpropanol]	–	–	–	–
